Data published in article PMC5663397, “A composite docking approach for the identification and characterization of ectosteric inhibitors of cathepsin K” (PLoS ONE, 2017).
Values joined by “and” are separate entries in the source; they are usually repeats but may differ in a detail not shown here. Equal entries are not always repeated. “Also recorded” adds a separate entry of the source. Structures can show the parent of a compound that is named as a salt. Where two headings read alike, the source gives them in different places. Blank lines part the entries; values can stand above or below the compound they belong to.

How the values were obtained:
human osteoclasts [1] = test: Osteoclast survival: CellTiter-Blue metabolic activity and osteoclast count after TRAcP staining; assay type: cell-based
Description: (§1) Osteoclasts were generated from mononuclear cells isolated from human bone marrow tissue (Lonza, Walkersville, MD). The bone marrow cells were centrifuged at 400 g for 5 min and the pellet was re-suspended in 10 mL α-MEM (α-Minimal Essential Media) and layered on 10 ml Ficoll-Plaque media solution. After centrifugation at 500 g for 30 min, the white interface containing the monocytes was harvested and washed twice with α-MEM. Cells were cultured in α-MEM containing 10% FBS and 25 ng/mL M-CSF for 24 hours and then cultured in 25 ng/mL RANKL and 25 ng/mL M-CSF for 7 days. Differentiated osteoclasts (100,000 cells per slice) were then seeded on each bone slice (5.5 mm diameter and 0.4 mm thickness; self-made) in the presence or absence of inhibitors and incubated for 72 hours at 5% CO2 and 37°C with the DMSO concentration at 0.1%. The inhibitor concentration range tested varied between 50 nM to 3 μM.
(§2) To compare the effects of the compounds on cell survival, the metabolic activity of osteoclasts was determined using the CellTiter-Blue Viability Assay (Promega, Madison, WI, USA). Bone slices from each condition (inhibitor-treated and control groups) were fixed in 4% formaldehyde and subsequently stained for tartrate-resistant acid phosphatase (TRAcP) activity (Acid Phosphatase, Leukocyte (TRAP) Kit; Sigma-Aldrich). Aliquots from cell culture media were used to determine the CTx-I concentration (MyBiosource ELISA kit, San Diego, CA). CTx-I is a CatK-specific C-terminal cleavage product of triple helical type I collagen. The total number of osteoclasts per bone slice was determined after TRAcP staining. Cells with ≥2 nuclei were counted as osteoclasts. After 72 h, bone slices from each condition were incubated in filtered water for cell lysis and cells were removed using a cotton stick. Subsequently the resorption cavities were stained with toluidine blue and observed by light microscopy. The number of resorption events and eroded bone surface area were determined as previously described. All light microscopic analyses were performed using a Nikon Eclipse LV100 microscope and a Nikon Eclipse Ci microscope.

human osteoclasts [2] = test: Human osteoclast bone resorption assay on bone slices; assay type: cell-based; details: for IC50: human osteoclasts on bone slices, read-out: IC50 for inhibition of trench eroded surface per bone surface (bone resorption)
Description: as §1, §2

MMP-1 [3] = target: T1, MMP-1 (Homo sapiens, UniProt P03956); test: Gelatin degradation assay with MMP-1; assay type: biochemical; details: 50 μM inhibitor, 10 nM MMP-1
T1 sequence (P03956 100-469): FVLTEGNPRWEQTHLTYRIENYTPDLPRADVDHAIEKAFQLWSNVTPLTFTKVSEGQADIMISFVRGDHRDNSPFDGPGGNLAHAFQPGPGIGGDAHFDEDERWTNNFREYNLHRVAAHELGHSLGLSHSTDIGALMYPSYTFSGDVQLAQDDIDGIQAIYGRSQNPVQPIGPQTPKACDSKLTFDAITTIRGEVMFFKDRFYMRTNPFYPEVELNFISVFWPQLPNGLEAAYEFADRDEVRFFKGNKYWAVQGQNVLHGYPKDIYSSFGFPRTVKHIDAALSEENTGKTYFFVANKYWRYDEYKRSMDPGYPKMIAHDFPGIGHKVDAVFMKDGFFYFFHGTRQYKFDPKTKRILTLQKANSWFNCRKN
Description: Gelatin (0.6 mg/mL) degradation assays were performed in the same manner as the collagen degradation experiments with 10 nM enzyme and were incubated at 37°C for one hour at the appropriate pH values for the individual proteases (CatK, pH 5.5; MMP-1, pH 7.4; trypsin, pH 8.8).

CatK [4] = target: T2, CatK (Homo sapiens, UniProt P43235); test: Z-Phe-Arg-MCA cleavage assay with CatK; assay type: biochemical; details: 100 μM inhibitor, 5 nM CatK, 5 μM substrate, pH 5.5
T2 construct: made in house; host or cells: Pichia pastoris
T2 sequence (P43235 115-329): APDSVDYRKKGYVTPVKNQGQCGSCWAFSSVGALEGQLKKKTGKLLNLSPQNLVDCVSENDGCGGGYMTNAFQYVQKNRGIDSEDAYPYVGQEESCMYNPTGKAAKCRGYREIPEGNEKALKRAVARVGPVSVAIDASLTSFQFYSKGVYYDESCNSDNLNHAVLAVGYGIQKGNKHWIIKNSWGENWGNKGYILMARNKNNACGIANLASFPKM
Description: (§3) The enzymatic activity of CatK was monitored by measuring the rate of release of the fluorogenic group, amino-methyl coumarin at an excitation wavelength of 380 nm and an emission wavelength of 450 nm using a Molecular Devices SpectraMax Gemini spectrofluorometer. Inhibitors were added prior to measurement of enzyme activity. The assays were performed at 25°C at a fixed enzyme concentrations (5 nM) and substrate concentration (5 μM) in 100 mM sodium acetate buffer, pH 5.5, containing 2.5 mM DTT and 2.5 mM EDTA. Z-Phe-Arg-MCA hydrolysis with trypsin was carried out in 50 mM Tris-HCl, pH 8.8 at 10 nM enzyme concentration.

CatK [5] = target: T2, CatK; test: CatK collagenase assay (type I collagen degradation, SDS-PAGE); assay type: biochemical
Description: The collagenase inhibitory activities of all identified compounds were measured using a collagen degradation assay. Soluble bovine type I collagen (0.6 mg/mL) was incubated with 400 nM recombinant human CatK, in the presence or absence of 200 nM chondroitin 4-sulfate (C4-S) in 100 mM sodium acetate buffer, pH 5.5, containing 2.5 mM dithiothreitol (DTT) (Sigma-Aldrich Canada, Oakville, Ontario, Canada) and 2.5 mM ethylenediametetraacetate (EDTA) (Sigma-Aldrich). In the experiments involving detergent to minimize inhibitor aggregation, 0.001% or 0.005% Triton X-100 was added to the buffer with the inhibitor. The recombinant human CatK was expressed in Pichia pastoris and purified as previously described. Selected compounds identified by molecular docking were ordered from the National Cancer Institute through the Developmental Therapeutics Program (Rockville, MD). All compounds were dissolved in DMSO as a 20 or […] stock. […] After incubation at 28°C for 4 hours, 1 μM of E-64 was added to block the residual activity of CatK.
(§4) Digestion with MMP-1 was performed in 50 mM Tris-HCl, pH 7.4, containing 200 mM NaCl and 5 mM CaCl2 at 28°C for 4 h. Reactions were stopped by adding 25 mM EDTA as previously described. Samples were analyzed using 10% SDS-PAGE gels and stained with Coomassie. The resulting bands of α-collagen chains were quantitatively assessed using ImageJ (Version 1.5) and IC50 graphs were plotted using GraphPad Prism (GraphPad Software, Version 5.0, La Jolla California USA).

MMP-1 [6] = target: T1, MMP-1; test: Collagen digestion with MMP-1; assay type: biochemical; details: 50 μM inhibitor, 400 nM MMP-1
Description: as §4

Yeast = test system: Yeast; design: method as in earlier work; details: cited from earlier work
trypsin = test: Z-Phe-Arg-MCA hydrolysis with trypsin; assay type: biochemical; details: 50 μM (5,000-times molar excess)
Description: as §3, with “Evaluation of a potential active site inhibition of the compounds was performed using the fluorogenic Benzyloxycarbonyl-Phe-Arg-7-amido-4-methylcoumarin (Z-Phe-Arg-MCA) substrate (Bachem Americas, Inc, Torrance, California, USA) as previously described. The enzymatic” for “The enzymatic”

human osteoclasts [7] = details: cited from earlier work
ovariectomiced mice = test system: ovariectomiced mice; design: method as in PMID 28745432; details: cited from earlier work
[8] = 1 μM inhibitor, 72 h, versus untreated
[9] = 400 nM CatK, soluble bovine type I collagen 0.6 mg/mL, pH 5.5, 28°C, 4 h, read-out: Collagenase IC50

SMILES: CCc1cc2nc3c(=O)[nH]c(=O)nc-3n(CCN(CCO)CCO)c2cc1CC [compound 1, 10-[2-[bis(2-hydroxyethyl)amino]ethyl]-7,8-diethylbenzo[γ]pteridine-2,4-dione]
Metabolic activity of osteoclasts (human osteoclasts [1]; CellTiter-Blue, compared with untreated cells): no significant differences
number of osteoclasts (human osteoclasts [1]; TRAcP staining, compared with untreated cells): no significant differences
cell toxicity (human osteoclasts [1]; osteoclast bone resorption assays): no cell toxicity effects
Number of trenches (human osteoclasts [2]; [8]): significant reduction
percentage of eroded surface area / total eroded surface (human osteoclasts [2]; [8]): very effective in reducing the total eroded surface; also recorded: significant reduction
IC50 (human osteoclasts [2]; Homo sapiens, Osteoclast, 72 h, 72 h): ~0.3 µM
IC50 (human osteoclasts [2]; 72 h): 0.312 ± 0.063 µM
overall potency, times lower than odanacatib (human osteoclasts [2]; osteoclast resorption assay, versus odanacatib): 15–20 times
inhibitory activity for the gelatinase activity of MMP-1 (MMP-1 [3]): no inhibitory activity; also recorded: did not show inhibition
inhibition at 100 µM (CatK [4]): 9.5 ± 2.6%
IC50 (CatK [5]; [9]): < 20 µM and 4.7 µM and ~5 µM
IC50 (CatK [5]; Collagenase IC50 with 0.005% Triton X-100, in the presence of detergent, 0.005% Triton X-100): 5.1 ± 1 µM
Collagenase IC50 with 0.005% Triton X-100 (CatK [5]; in the presence of detergent, 0.005% Triton X-100): not significantly different
inhibitory activity towards the collagenase activity of MMP-1 (MMP-1 [6]): no inhibitory activity; also recorded: did not show inhibition
activity in NCI Yeast Anticancer Drug Screen (Yeast): active

SMILES: O=C(Nc1cccc(C(=O)Nc2cccc(C3=NCCN3)c2)c1)Nc1cccc(C(=O)Nc2cccc(C3=NCCN3)c2)c1 [compound 8, N-[3-(4,5-dihydro-1H-imidazol-2-yl)phenyl]-3-[[3-[[3-(4,5-dihydro-1H-imidazol-2-yl)phenyl]carbamoyl]phenyl]carbamoylamino]benzamide hydrochloride]
inhibition at 100 µM (CatK [4]): 7.2 ± 3.6%
IC50 (CatK [5]; [9]): 12.8 µM and < 20 µM

SMILES: CCN(CC)CC1=C/C(=N/NC2=C3C=CC(=O)C(NNc4ccc(O)c(CN(CC)CC)c4)=C3C=CC2=O)C=CC1=O.Cl [compound 9, 1-[2-[3-(diethylaminomethyl)-4-hydroxyphenyl]hydrazinyl]-5-[(2E)-2-[3-(diethylaminomethyl)-4-oxocyclohexa-2,5-dien-1-ylidene]hydrazinyl]naphthalene-2,6-dione hydrochloride]
inhibition at 100 µM (CatK [4]): 3.2 ± 0.8%
IC50 (CatK [5]; [9]): < 20 µM
activity in NCI Yeast Anticancer Drug Screen (Yeast): active

SMILES: CSCCC(NCC(N)Cc1ccc2ccccc2c1)C(=O)NCc1cccc(C(=O)NC(CNC(CC(C)C)C(=O)O)Cc2ccccc2)c1 (stereo not shown) [compound 719315]
IC50 (CatK [5]; [9]): 88 µM

SMILES: CC(C)(F)C[C@H](N[C@@H](c1ccc(-c2ccc(S(C)(=O)=O)cc2)cc1)C(F)(F)F)C(=O)NC1(C#N)CC1 [odanacatib]
IC50 (human osteoclasts [7]; read-out: IC50 for human-osteoclast-mediated bone resorption): 0.0146 µM

SMILES: Cc1c(S(=O)(=O)O)oc2c1C(=O)C(=O)c1c-2ccc2c1CCCC2(C)C [tanshinone IIA sulfonate]
IC50 (human osteoclasts [7]; read-out: IC50 in osteoclast resorption assay): 0.24 µM
efficacy in ovariectomiced mice (ovariectomiced mice): showed efficacy

Now from value to compound, other results behind:

inhibition at 100 µM (CatK [4]): 6.1 ± 3.9%
IC50 (CatK [5]; [9]): < 20 µM and 7.6 µM
SMILES: CN(C)CCNc1ccc2ncn3c4ccc(O)cc4c(=O)c1c23 [compound 2, 2-((8-hydroxy-6-oxo-6H-imidazo[4,5,1-de]acridin-5-yl)amino)-N,N-dimethylethanaminium]

inhibition at 100 µM (CatK [4]): 2.3 ± 0.9%
IC50 (CatK [5]; [9]): < 20 µM and 9.9 µM
SMILES: CCc1nc2ccc(NCCN(C)C)c3c(=O)c4ccccc4n1c23 [compound 4, 5-(2-(dimethylamino)ethylamino)-1-ethyl-6H-imidazo[4,5,1-de]acridin-6-one]

inhibition at 100 µM (CatK [4]): 3.7 ± 0.7%
IC50 (CatK [5]; [9]): < 20 µM and 13 µM
SMILES: CCN(CC)CCNc1ccc2ncn3c4ccccc4c(=O)c1c23 [compound 5, 5-{[2-(diethylamino)ethyl]amino}-6H-imidazo[4,5,1-de]acridin-6-one hydrochloride (1:1)]

inhibition at 100 µM (CatK [4]): 11.5 ± 2.6%
IC50 (CatK [5]; [9]): ~35 µM and 34.8 µM
SMILES: Cc1c2c(c(O)c3c(O)cccc13)C(=O)C1(O)C(=O)C(C(N)=O)C(O)C(N(C)C)C1C2 (stereo not shown) [compound 6, 4-(dimethylamino)-3,10,11,12a-tetrahydroxy-6-methyl-1,12-dioxo-3,4,4a,5-tetrahydro-2H-tetracene-2-carboxamide]
inhibition of Z-Phe-Arg-MCA degradation by trypsin (trypsin): 60%

IC50 (CatK [5]; [9]): 89 µM
SMILES: CC1CN=C(c2cccc(NC(=O)c3ccc(C(=O)Nc4cccc(C5=NCC(C)N5)c4)c(N)c3)c2)N1 (stereo not shown) [compound 80116]
